# Data reported in ChEMBL document CHEMBL5335860, “Imidazole Bioisostere Activators of Endopeptidase Neurolysin with Enhanced Potency and Metabolic Stability” (ACS Med Chem Lett, 2024).
# pEC50: −log10 of the molar value. Active and inactive are the calls of the source. The calls are words filed in the database; no cut-off is given here. Peptide text beside a SMILES is read from it. * marks the point of attachment. NHPhenethyl = c1ccc(CCN*)cc1
# Key:
# [1] = target: T1, Neurolysin, mitochondrial (Homo sapiens, UniProt Q9BYT8); test: Activation of Nln (unknown origin) using Mca-Pro-Leu-Gly-Pro-D-Lys(DNP)- OH as substrate preincubated for 10 mins followed by substrate addition measured for 20 mins by fluorescence based assay; details: for pEC50: read-out: EC50
# Target sequence in this assay (Q9BYT8 whole entry): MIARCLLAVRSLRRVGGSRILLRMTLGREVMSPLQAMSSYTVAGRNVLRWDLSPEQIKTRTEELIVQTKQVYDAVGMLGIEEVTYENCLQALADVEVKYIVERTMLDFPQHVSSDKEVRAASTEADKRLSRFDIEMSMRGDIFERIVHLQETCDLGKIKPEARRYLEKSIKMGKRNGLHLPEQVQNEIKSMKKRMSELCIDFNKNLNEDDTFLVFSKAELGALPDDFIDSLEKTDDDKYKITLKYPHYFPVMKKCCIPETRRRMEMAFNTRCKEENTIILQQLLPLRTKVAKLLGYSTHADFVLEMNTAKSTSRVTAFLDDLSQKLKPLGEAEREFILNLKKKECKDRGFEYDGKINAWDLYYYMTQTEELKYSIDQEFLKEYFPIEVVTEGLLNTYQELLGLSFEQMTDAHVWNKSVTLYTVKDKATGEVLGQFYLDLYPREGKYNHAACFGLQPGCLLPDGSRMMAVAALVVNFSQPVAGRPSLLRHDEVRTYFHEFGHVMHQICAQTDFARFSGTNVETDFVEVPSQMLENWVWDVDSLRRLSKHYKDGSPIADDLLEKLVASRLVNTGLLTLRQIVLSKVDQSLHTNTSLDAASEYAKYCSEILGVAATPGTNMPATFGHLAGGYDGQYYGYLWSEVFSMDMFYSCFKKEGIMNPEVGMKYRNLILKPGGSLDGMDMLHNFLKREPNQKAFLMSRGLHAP
# [2] = target: T1, Neurolysin, mitochondrial; test: Activation of Nln (unknown origin) using Mca-Pro-Leu-Gly-Pro-D-Lys(DNP)- OH as substrate preincubated for 10 mins followed by substrate addition measured for 20 mins by fluorescence based assay relative to control; details: filed as activator, time 30.0 min
# Target sequence in this assay (Q9BYT8 38-704 limits assumed): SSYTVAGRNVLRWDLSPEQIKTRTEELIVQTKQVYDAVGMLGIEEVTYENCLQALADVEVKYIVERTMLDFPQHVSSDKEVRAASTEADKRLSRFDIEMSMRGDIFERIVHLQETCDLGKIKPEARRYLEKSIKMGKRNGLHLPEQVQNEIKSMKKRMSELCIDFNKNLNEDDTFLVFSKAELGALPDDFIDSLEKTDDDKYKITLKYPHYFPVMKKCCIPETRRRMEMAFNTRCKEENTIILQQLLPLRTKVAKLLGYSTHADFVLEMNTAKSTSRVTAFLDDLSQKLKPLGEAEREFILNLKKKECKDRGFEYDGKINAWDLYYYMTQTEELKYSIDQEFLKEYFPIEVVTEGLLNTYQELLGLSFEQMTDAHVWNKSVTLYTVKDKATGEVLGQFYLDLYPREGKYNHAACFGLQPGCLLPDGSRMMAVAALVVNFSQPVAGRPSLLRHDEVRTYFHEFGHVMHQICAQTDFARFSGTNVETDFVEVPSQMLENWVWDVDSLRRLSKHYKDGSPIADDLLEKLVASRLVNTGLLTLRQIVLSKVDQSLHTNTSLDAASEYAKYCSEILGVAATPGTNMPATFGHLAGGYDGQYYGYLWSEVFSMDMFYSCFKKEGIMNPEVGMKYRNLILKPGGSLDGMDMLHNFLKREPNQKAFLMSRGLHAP
# [3] = Elimination half life in MCAO mouse model at 4 mg/kg, iv; format: ADME, organism-based; details: in vivo, read-out: beta t1/2
# [4] = Drug concentration in brain of MCAO mouse model at 4 mg/kg, iv measured after 30 mins; format: ADME, organism-based; details: read-out: Ct
# [5] = Permeability coefficient in co-culture of primary mouse astrocytes and immortalized mouse endothelial cells at 10 ug/ml by BBB assay; format: ADME; details: dose 10 µg/ml, read-out: Kp (converted)
# [6] = Half life in mouse plasma at 500 ng/ml measured for 4 hrs by LC-MS/MS analysis; format: ADME, cell-free
# [7] = Half life in mouse brain at 500 ng/ml measured for 4 hrs by LC-MS/MS analysis; format: ADME, tissue-based
# [8] = target: Thimet oligopeptidase (Homo sapiens) (UniProt P52888); test: Inhibition of recombinant THOP1 (unknown origin) relative to control; details: concentration not given here
# Sequence of Thimet oligopeptidase (Homo sapiens) (P52888 whole entry, the tested form may be a part): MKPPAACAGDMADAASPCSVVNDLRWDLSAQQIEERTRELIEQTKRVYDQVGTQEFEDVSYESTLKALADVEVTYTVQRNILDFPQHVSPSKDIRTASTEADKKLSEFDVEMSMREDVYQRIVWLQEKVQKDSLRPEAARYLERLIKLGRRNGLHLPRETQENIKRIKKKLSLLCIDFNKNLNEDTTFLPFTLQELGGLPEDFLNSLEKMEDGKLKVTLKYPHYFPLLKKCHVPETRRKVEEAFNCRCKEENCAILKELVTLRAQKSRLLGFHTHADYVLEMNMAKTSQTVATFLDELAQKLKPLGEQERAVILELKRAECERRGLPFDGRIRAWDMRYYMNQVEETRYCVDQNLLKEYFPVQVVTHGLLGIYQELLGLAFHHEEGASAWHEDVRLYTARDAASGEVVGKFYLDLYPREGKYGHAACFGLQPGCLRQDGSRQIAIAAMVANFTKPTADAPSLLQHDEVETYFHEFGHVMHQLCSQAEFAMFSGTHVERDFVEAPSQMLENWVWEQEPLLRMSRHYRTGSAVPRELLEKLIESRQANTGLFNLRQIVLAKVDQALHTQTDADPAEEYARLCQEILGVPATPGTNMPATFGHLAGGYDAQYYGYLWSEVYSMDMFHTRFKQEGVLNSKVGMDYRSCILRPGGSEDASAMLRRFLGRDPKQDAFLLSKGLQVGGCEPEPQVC
# [9] = target: Neprilysin (Homo sapiens) (UniProt P08473); test: Inhibition of N-terminal polyhis-tagged recombinant human neprilysin (52 to 750 residues) expressed in HEK293 cells relative to control; format: cell-based; details: concentration not given here
# Sequence of Neprilysin (Homo sapiens) (P08473 whole entry, the tested form may be a part): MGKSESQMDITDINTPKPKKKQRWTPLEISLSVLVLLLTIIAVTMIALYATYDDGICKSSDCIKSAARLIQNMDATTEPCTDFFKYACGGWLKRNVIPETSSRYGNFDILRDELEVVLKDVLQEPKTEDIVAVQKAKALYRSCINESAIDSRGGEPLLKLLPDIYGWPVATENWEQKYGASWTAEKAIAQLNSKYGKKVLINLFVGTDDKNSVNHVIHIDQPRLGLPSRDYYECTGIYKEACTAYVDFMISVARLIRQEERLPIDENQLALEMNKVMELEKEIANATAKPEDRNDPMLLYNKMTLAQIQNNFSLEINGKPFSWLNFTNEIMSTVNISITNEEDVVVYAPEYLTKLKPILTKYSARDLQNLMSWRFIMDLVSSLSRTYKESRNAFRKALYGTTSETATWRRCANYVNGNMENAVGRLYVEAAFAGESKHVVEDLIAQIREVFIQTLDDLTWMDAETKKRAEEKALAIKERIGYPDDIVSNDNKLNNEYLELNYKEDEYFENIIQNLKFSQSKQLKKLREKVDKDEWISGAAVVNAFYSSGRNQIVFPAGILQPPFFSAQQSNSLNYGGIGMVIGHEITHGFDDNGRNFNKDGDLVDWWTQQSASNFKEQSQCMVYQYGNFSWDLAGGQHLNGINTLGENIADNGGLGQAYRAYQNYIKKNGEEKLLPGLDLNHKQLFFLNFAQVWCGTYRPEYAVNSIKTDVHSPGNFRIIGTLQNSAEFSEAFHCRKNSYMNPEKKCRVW
# [10] = target: Angiotensin-converting enzyme 2 (Homo sapiens) (UniProt Q9BYF1); test: Inhibition of C-terminal polyhis-tagged recombinant human ACE2 (1 to 740 residues) expressed in HEK293 cells relative to control; format: cell-based; details: concentration not given here
# Sequence of Angiotensin-converting enzyme 2 (Homo sapiens) (Q9BYF1 18-805 limits assumed): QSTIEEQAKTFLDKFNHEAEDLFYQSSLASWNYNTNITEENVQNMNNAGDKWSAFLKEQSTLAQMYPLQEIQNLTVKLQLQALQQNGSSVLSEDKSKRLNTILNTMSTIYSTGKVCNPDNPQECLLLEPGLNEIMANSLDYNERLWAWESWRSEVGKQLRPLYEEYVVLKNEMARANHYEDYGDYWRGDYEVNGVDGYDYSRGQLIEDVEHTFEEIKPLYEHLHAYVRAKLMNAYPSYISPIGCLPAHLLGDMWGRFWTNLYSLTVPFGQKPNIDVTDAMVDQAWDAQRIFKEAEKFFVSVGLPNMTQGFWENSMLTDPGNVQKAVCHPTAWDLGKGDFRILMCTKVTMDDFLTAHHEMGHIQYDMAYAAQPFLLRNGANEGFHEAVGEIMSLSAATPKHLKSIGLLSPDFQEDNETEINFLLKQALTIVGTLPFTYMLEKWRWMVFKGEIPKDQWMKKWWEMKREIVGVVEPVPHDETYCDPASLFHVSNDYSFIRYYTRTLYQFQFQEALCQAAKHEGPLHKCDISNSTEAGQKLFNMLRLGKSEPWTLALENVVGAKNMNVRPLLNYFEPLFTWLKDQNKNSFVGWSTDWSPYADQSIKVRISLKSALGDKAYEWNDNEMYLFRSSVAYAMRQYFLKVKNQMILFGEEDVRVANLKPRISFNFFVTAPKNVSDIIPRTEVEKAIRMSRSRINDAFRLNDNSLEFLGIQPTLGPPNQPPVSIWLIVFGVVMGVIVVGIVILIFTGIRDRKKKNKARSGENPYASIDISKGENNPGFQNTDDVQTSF
# [11] = target: Angiotensin-converting enzyme (Homo sapiens) (UniProt P12821); test: Inhibition of C-terminal 10-His-tagged recombinant human ACE (30 to 1261 residues) expressed in mouse myeloma cells relative to control; details: concentration not given here
# Sequence of Angiotensin-converting enzyme (Homo sapiens) (P12821 whole entry, the tested form may be a part): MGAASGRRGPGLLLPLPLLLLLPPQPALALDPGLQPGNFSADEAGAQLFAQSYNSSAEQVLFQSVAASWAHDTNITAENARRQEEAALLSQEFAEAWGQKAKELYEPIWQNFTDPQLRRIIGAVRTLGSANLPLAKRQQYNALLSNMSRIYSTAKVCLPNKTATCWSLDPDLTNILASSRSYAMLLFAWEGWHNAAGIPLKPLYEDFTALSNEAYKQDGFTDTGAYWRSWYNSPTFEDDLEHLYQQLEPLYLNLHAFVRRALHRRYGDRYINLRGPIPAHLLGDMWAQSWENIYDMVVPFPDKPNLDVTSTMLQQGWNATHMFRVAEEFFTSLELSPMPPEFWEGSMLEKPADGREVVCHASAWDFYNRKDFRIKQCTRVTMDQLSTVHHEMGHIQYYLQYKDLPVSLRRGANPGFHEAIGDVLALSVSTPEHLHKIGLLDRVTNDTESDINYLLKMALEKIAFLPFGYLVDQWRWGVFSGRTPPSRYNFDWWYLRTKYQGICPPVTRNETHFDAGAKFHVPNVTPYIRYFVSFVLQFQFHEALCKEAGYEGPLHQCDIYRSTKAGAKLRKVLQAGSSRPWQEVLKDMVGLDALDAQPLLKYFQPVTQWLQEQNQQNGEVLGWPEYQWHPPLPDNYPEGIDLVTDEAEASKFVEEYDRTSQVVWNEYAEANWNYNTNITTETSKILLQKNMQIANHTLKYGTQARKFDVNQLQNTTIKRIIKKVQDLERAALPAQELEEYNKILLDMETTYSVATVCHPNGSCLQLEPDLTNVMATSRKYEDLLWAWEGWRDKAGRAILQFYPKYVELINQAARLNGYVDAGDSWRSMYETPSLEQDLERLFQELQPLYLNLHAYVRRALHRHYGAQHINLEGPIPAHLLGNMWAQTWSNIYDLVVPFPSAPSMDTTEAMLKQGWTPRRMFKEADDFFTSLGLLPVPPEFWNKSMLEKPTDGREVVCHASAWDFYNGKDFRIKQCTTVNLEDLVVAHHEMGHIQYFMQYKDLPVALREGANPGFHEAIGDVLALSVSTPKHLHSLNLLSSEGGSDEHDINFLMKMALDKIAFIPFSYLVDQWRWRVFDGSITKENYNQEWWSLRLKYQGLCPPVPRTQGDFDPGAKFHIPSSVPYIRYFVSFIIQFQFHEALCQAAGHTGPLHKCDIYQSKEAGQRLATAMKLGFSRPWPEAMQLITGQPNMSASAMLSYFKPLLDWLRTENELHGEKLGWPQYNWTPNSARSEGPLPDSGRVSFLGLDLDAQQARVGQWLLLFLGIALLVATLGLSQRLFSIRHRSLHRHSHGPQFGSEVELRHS
# [12] = target: Angiotensin-converting enzyme (Homo sapiens) (UniProt P12821); test: Inhibition of C-terminal 10-His-tagged recombinant human ACE (30 to 1261 residues) expressed in mouse myeloma cells; details: Multiple myeloma cell
# [13] = target: Angiotensin-converting enzyme 2 (Homo sapiens) (UniProt Q9BYF1); test: Inhibition of C-terminal polyhis-tagged recombinant human ACE2 (1 to 740 residues) expressed in HEK293 cells; format: cell-based
# [14] = target: Neprilysin (Homo sapiens) (UniProt P08473); test: Inhibition of N-terminal polyhis-tagged recombinant human neprilysin (52 to 750 residues) expressed in HEK293 cells; format: cell-based
# [15] = target: Thimet oligopeptidase (Homo sapiens) (UniProt P52888); test: Inhibition of recombinant THOP1 (unknown origin)
Structure (SMILES),pEC50 [1],Emax [2] [%],further results
CN(Cc1cccc2ccccc12)C(=O)[C@@H](N)Cc1c[nH]cn1,5.42,345,
N[C@@H](Cc1c[nH]cn1)C(=O)N1CCC(Cc2ccccc2F)CC1,5.37,237,
CC(C)[C@H](NC(=O)[C@@H](N)Cc1c[nH]cn1)C(=O)NCc1cccc2ccccc12,,,EC50 [1]: Not Active
N[C@@H](Cc1c[nH]cn1)C(=S)NCc1cccc2ccccc12,5.47,279,
N[C@@H](Cc1c[nH]cn1)C(=O)N[C@@H](Cc1ccccc1)C(=O)NCc1cccc2ccccc12,,,EC50 [1]: Not Active
N[C@@H](Cc1c[nH]cn1)C(=O)N1CCc2ccccc2C1,4.49,380,
N[C@@H](Cc1c[nH]cn1)C(=O)Nc1cccc2cccnc12,5.15,,half-life [3]: 0.5 h; concentration at 0.5 h [4]: 260 nM; Papp at 10 ug/ml [5]: 19 ×10⁻⁶ cm/s
N[C@H](Cc1c[nH]cn1)C(=O)N1CCC(Cc2ccccc2F)CC1,5.27,272,
N[C@@H](Cc1c[nH]cn1)C(=O)NCC(=O)c1ccc(Cl)cc1,4.47,130,
N[C@@H](Cc1c[nH]cn1)C(=O)NCc1cccc2ccccc12,,264,half-life at 500 ng/ml [6]: > 16.7 h; half-life at 500 ng/ml [7]: 1.34 h; Papp at 10 ug/ml [5]: 18.3 ×10⁻⁶ cm/s
N[C@H](Cc1c[nH]cn1)c1ncc(-c2ccc3ccccc3c2)[nH]1,5.17,138,
N[C@@H](Cc1c[nH]cn1)C(=O)NCCc1ccc(F)cc1,4.94,,
N[C@@H](Cc1c[nH]cn1)C(=O)NCc1ccc2ccccc2c1,5.36,211,
N[C@@H](Cc1c[nH]cn1)c1ncc(-c2ccc(Cl)cc2)[nH]1,5.54,318,
N[C@@H](Cc1c[nH]cn1)C(=O)N(CCc1c[nH]c2ccccc12)Cc1ccccc1,5.28,307,
N[C@@H](Cc1c[nH]cn1)C(=O)N[C@@H](Cc1ccccc1)C(=O)O (H-His-Phe-OH),4.07,,half-life at 500 ng/ml [6]: 0.57 h; Papp at 10 ug/ml [5]: 1.17 ×10⁻⁶ cm/s
N[C@@H](Cc1c[nH]cn1)C(=O)N[C@@H](Cc1ccccc1)C(=O)NCCc1ccccc1 (H-His-Phe-NHPhenethyl),5.27,178,
N[C@@H](Cc1c[nH]cn1)c1ncc(-c2cccc3ccccc23)[nH]1,5.39,244,inhibition [8]: 20%; inhibition [9]: 20%; half-life at 500 ng/ml [6]: > 16.7 h; inhibition [10]: 20%; half-life at 500 ng/ml [7]: 1.77 h; Papp at 10 ug/ml [5]: 13.8 ×10⁻⁶ cm/s; inhibition [11]: 20%
N[C@@H](Cc1c[nH]cn1)c1ncc(-c2ccc3ccccc3c2)[nH]1,5.26,268,
N[C@@H](Cc1c[nH]cn1)C(=O)Nc1ccccc1,3.60,467,
CN(Cc1cccc2ccccc12)C(=O)[C@H](N)Cc1c[nH]cn1,5.44,324,
N[C@H](Cc1c[nH]cn1)c1ncc(-c2ccc(Cl)cc2)[nH]1,5.70,282,inhibition [12]: inactive; half-life at 500 ng/ml [6]: 8.15 h; half-life at 500 ng/ml [7]: 1.81 h; inhibition [13]: inactive; Papp at 10 ug/ml [5]: 6 ×10⁻⁶ cm/s; inhibition [14]: inactive; inhibition [15]: inactive
N[C@@H](Cc1c[nH]cn1)C(=O)NCCc1ccc(Cl)cc1,4.60,404,
N[C@@H](Cc1c[nH]cn1)C(=O)NCC(=O)c1ccc2ccccc2c1,,,EC50 [1]: Not Active
